Paper PMC10607100, “Anticancer and Antiphytopathogenic Activity of Fluorinated Isatins and Their Water-Soluble Hydrazone Derivatives” (International Journal of Molecular Sciences, 2023)
Like-named read-outs stand apart in the source and are kept apart here.

How the values were obtained:
Assay type in all cases: cell-based
[1] = test system: five representative phytopathogens; experiment: Agar-well diffusion, bactericidal activity over the panel of phytopathogens
Source text: (§1) Plant pathogenic bacterial strains Micrococcus luteus B-109, Pectobacterium atrosepticum 1043, Pectobacterium carotovorum subsp. carotovorum MI, Pseudomonas fluorescens EL-2.1, and Xanthomonas campestris B-610 and the fungal strain Fusarium oxysporum IBPPM 543 were from the Collection of Rhizosphere Microorganisms, IBPPM RAS (WFCC no. 975, WDCM no. 1021) (CM IBPPM, http://collection.ibppm.ru). The pathogenic fungus Phytophthora cactorum VKM F-985, provided by the All-Russian Collection of Microorganisms (VKM) and deposited at the A.E. Favorsky Irkutsk Institute of Chemistry, SB RAS, was also used as a test organism. Bacteria M. luteus, P. carotovorum subsp. carotovorum, P. atrosepticum, and P. fluorescens were grown in a meat–peptone medium (BP), and X. campestris was grown in the medium with glucose, yeast extract, and calcium carbonate (GYCa). Solid media contained Bacto agar (18 g/L); pH was adjusted to 7.2–7.4. All bacterial cultures were grown at 28 °C. The mycelial cultures of F. oxysporum and P. cactorum were grown on a glucose–peptone–yeast (GPY) nutrient medium at 27 °C. For inoculum preparation, both fungal strains were initially grown on the agar GPY in Petri dishes and then transferred into the seed medium by punching out 5 mm of the agar plate culture with a self-designed cutter.
(§2) The antibacterial and antifungal activities of the compounds were explored using the agar-well diffusion method and the technique of mycelial radial growth inhibition. The method of diffusion in agar (measuring the diameter of growth inhibition zones) was used to determine the bactericidal activity. The 6-mm wells were made in agar medium (GYCa for Xanthomonas campestris or BP for other bacteria). Bacterial suspensions were distributed over the agar surface, and the tested compound’s solution (150 μL) was added to each well. The width of growth inhibition zones around the wells was determined after incubation for 36–40 h.

[2] = test system: Fusarium oxysporum IBPPM 543; experiment: Mycelial radial growth inhibition; conditions: Fusarium oxysporum; for inhibition of growth at 1 µM: 1 nmol/mL; for inhibition of growth at 1 µM / inhibition of growth at 5 µM / inhibition of growth at 30 µM / inhibition of growth at 40 µM: read-out: Inhibition value, I (%); for inhibition of growth at 5 µM: 5 nmol/mL; for inhibition of growth at 30 µM: 30 nmol/mL; for inhibition of growth at 40 µM: 40 nmol/mL
Source text: as §1
(§3) For the fungicidal activity analysis, radial growth (colony diameters) of the fungi on a solid medium in the absence and in the presence of the compounds 5a–e and 7a–c solutions at various concentrations were compared. The method consisted of the following: A sterile GPY agar medium (20.0 mL), which was melted and then allowed to cool to approximately 60 °C, was mixed with the precisely measured volumes of the solutions under question and poured into a sterile Petri dish (90 mm i.d.). After the solidification of GPY agar, the media were inoculated by the fungus using 10-day-old cultures of F. oxysporum or P. cactorum. The inoculation was conducted by transferring a 5-mm (i.d.) GPY-agar block covered with mycelium to the center of the Petri dish, followed by incubation in a thermostat at 27 °C. The fungicidal effect was scored by the size of the mycelium colony on a Petri dish compared to the control without fungicidal admixtures to GPY agar. Each treatment was performed in at least four replicates in two independent experiments. The observation period ended when the control Petri dish was filled with mycelium (usually after 12 days). […] The solutions of the compounds were prepared with a concentration of 2 mmol/L (stock solution). For comparison, test compounds were also commonly applied as disinfecting agents, and antibiotics were used as a positive control.

[3] = test system: Phytophthora cactorum VKM F-985; experiment: Mycelial radial growth inhibition; conditions: Phytophthora cactorum; for inhibition of growth at 3 µM: 3 nmol/mL; for inhibition of growth at 3 µM / inhibition of growth at 7 µM / inhibition of growth at 20 µM / inhibition of growth / inhibition of growth at 40 µM: read-out: Inhibition value, I (%); for inhibition of growth at 7 µM: 7 nmol/mL; for inhibition of growth at 20 µM: 20 nmol/mL; for inhibition of growth: 27 nmol/mL; for inhibition of growth at 40 µM: 40 nmol/mL
Source text: as §1, §3

[4] = test system: Xanthomonas campestris B-610; experiment: Agar-well diffusion, bactericidal activity; conditions: Xanthomonas campestris
Procedure: Bacteria M. luteus, P. carotovorum subsp. carotovorum, P. atrosepticum, and P. fluorescens were grown in a meat–peptone medium (BP), and X. campestris was grown in the medium with glucose, yeast extract, and calcium carbonate (GYCa). Solid media contained Bacto agar (18 g/L); pH was adjusted to 7.2–7.4. […] For inoculum preparation, both fungal strains were initially grown on the agar GPY in Petri dishes and then transferred into the seed medium by punching out 5 mm of the agar plate culture with a self-designed cutter.
as §2

[5] = test system: Micrococcus luteus B-109; experiment: Agar-well diffusion, bactericidal activity; conditions: Micrococcus luteus
Source text: as §1, §2

[6] = test system: Pseudomonas fluorescens EL-2.1; experiment: Agar-well diffusion, bactericidal activity; conditions: Pseudomonas fluorescens, EL2.1, 2 mM/L
Source text: as §1, §2

[7] = test system: Pectobacterium carotovorum subsp. carotovorum MI; experiment: Agar-well diffusion, bactericidal activity; conditions: Pectobacterium carotovorum, 2 mM/L
Source text: as §1, §2

[8] = test system: Pectobacterium atrosepticum 1043; experiment: Agar-well diffusion, bactericidal activity; conditions: Pectobacterium atrosepticum, 1043, 2 mM/L
Source text: as §1, §2

[9] = IBPPM543, 72 h, age of the fungus 3 days
[10] = IBPPM543, 120 h, age of the fungus 5 days
[11] = IBPPM543, 168 h, age of the fungus 7 days
[12] = IBPPM543, 216 h, age of the fungus 9 days
[13] = 120 h, age of the fungus 5 days
[14] = 168 h, age of the fungus 7 days
[15] = 216 h, age of the fungus 9 days
[16] = Table S3, read-out: Inhibition zone width (mm), not less

## Cc1ccc[n+](CC(=O)N/N=C2\C(=O)N(Cc3ccccc3F)c3ccccc32)c1C [Compound 7a]
[1]; 36 h, 2 mM solutions, dependent on the test system used, read-out: inhibition zone width (mm), range over the test systems
  zone of inhibition at 2000 µM: 2 to 6 mm
[1]; Table S2
  bactericidal activity: moderate bactericidal activity
[1]; against P. carotovorum subsp. carotovorum MI, Ps. fluorescens EL-2.1 and X. campestris B-610
  inhibition zone: 5–6 mm
[2]; [9]
  inhibition of growth at 1 µM: 9%
  inhibition of growth at 5 µM: 43%
  inhibition of growth at 30 µM: 51%
  inhibition of growth at 40 µM: 61%
[2]; IBPPM543, 120 h, day 5, read-out: EC50, µg/mL at Day 5, F. oxysporum
  EC50: 7.25 µg/mL
[2]; [10]
  inhibition of growth at 1 µM: 4%
  inhibition of growth at 5 µM: 44%
  inhibition of growth at 30 µM: 59%
  inhibition of growth at 40 µM: 65%
[2]; [11]
  inhibition of growth at 1 µM: 8%
  inhibition of growth at 5 µM: 41%
  inhibition of growth at 30 µM: 56%
  inhibition of growth at 40 µM: 69%
[2]; [12]
  inhibition of growth at 1 µM: 0%
  inhibition of growth at 5 µM: 33%
  inhibition of growth at 30 µM: 55%
  inhibition of growth at 40 µM: 64%
[3]; 72 h, age of the fungus 3 days
  inhibition of growth at 3 µM: 5%
  inhibition of growth at 7 µM: 17%
  inhibition of growth at 20 µM: 21%
  inhibition of growth: 27%
  inhibition of growth at 40 µM: 42%
[3]; 120 h, day 5, read-out: EC50, µg/mL at Day 5, P. cactorum
  EC50: 22.9 µg/mL
[3]; [13]
  inhibition of growth at 3 µM: 12%
  inhibition of growth at 7 µM: 21%
  inhibition of growth at 20 µM: 25%
  inhibition of growth: 29%
  inhibition of growth at 40 µM: 45%
[3]; [14]
  inhibition of growth at 3 µM: 4%
  inhibition of growth at 7 µM: 10%
  inhibition of growth at 20 µM: 16%
  inhibition of growth: 20%
  inhibition of growth at 40 µM: 38%
[3]; [15]
  inhibition of growth at 3 µM: 4%
  inhibition of growth at 7 µM: 6%
  inhibition of growth at 20 µM: 13%
  inhibition of growth: 16%
  inhibition of growth at 40 µM: 37%
[4]; B610, 2 mM/L, average of 3 experiments, read-out: width of the inhibition zone (mm), X. campestris
  zone of inhibition at 2000 µM: 5 mm
[4]; B610, Table S3, 2 mM/L, read-out: Inhibition zone width (mm), not less
  zone of inhibition at 2000 µM: ≥ 5 mm
[5]; B109, 2 mM/L, average of 3 experiments, read-out: width of the inhibition zone (mm), M. luteus
  zone of inhibition at 2000 µM: 2 mm
[5]; B109, Table S3, 2 mM/L, read-out: Inhibition zone width (mm), not less
  zone of inhibition at 2000 µM: ≥ 2 mm
[6]; average of 3 experiments, read-out: width of the inhibition zone (mm), Ps. fluorescens
  zone of inhibition at 2000 µM: 5 mm
[6]; [16]
  zone of inhibition at 2000 µM: ≥ 5 mm
[7]; average of 3 experiments, read-out: width of the inhibition zone (mm), P. carotovorum subsp. carotovorum
  zone of inhibition at 2000 µM: 6 mm
[7]; [16]
  zone of inhibition at 2000 µM: ≥ 6 mm
[8]; average of 3 experiments, read-out: width of the inhibition zone (mm), P. atrosepticum
  zone of inhibition at 2000 µM: 3 mm
[8]; [16]
  zone of inhibition at 2000 µM: ≥ 3 mm
